Measurements taken from patent US9884063B2, “Amido-substituted azole compounds” (Bayer Pharma Aktiengesellschaft, priority 2014, dated 2018).

What follows are compounds tested on wildtype Wnt signaling cascade (assay: HEK293 TOP Assay (Super TopFlash luciferase reporter, Wnt-3a stimulated)). Conditions: Homo sapiens, HEK293, 16 h, HEK293 TOP reporter cell line, Wnt-3a at EC50, 16 hours incubation, compound dilution series 50 μM to 15 nM.
Format: cell-based
Method: In order to discover and characterize small molecules which inhibit the wildtype Wnt pathway, a cellular reporter assay was employed. The corresponding assay cell was generated by transfection of the mammalian cell line HEK293 (ATCC, #CRL-1573) with the Super TopFlash vector (Morin, Science 275, 1997, 1787-1790; Molenaar et al., Cell 86 (3), 1996, 391-399). The HEK293 cell line is cultivated at 37° C. and 5% CO2 in DMEM (Life Technologies, #41965-039), supplemented with 2 mM glutamine, 20 mM HEPES, 1.4 mM pyruvate, 0.15% Na-bicarbonate and 10% foetal bovine serum (GIBCO, #10270). Stable transfectants were generated by selection with 300 μg/ml Hygromycin.
In preparation of the assay, the two cell lines were plated 24 hrs before beginning the test at 10000 cells per well in a 384 micro titre plate (MTP) in 30 μl growth medium. […] The recombinant human Wnt-3a was thereby applied between 2500 and 5 ng/ml in two-fold dilution steps.
Selective inhibitory activity for small molecules on the wildtype Wnt pathway was determined after parallel incubation of both (TOP and FOP) HEK293 reporter cell lines with a compound dilution series from 50 μM to 15 nM in steps of 3.16-fold dilutions in CAFTY buffer (130 mM sodium chloride, 5 mM potassium chloride, 20 mM HEPES, 1 mM magnesium chloride, 5 mM sodium bicarbonate, pH 7.4) containing 2 mM Ca^2+ and 0.01% BSA.
The compounds were thereby serially prediluted in 100% DMSO and thereafter 50 fold into the CAFTY compound dilution buffer (described above).

Structure (SMILES) | IC50 [µM]
CNC(=O)c1nc[nH]c1C(=O)Nc1ccc(NC(=O)c2c(OC)cccc2OC)cc1 [Example 57, N^5-{4-[(2,6-dimethoxybenzoyl)amino]phenyl}-N^4-methyl-1H-imidazole-4,5-dicarboxamide] | 33
CNC(=O)c1nc[nH]c1C(=O)Nc1ccc(NC(=O)c2c(Cl)cc(Cl)cc2Cl)cc1 [Example 59, N^4-methyl-N^5-{4-[(2,4,6-trichlorobenzoyl)amino]phenyl}-1H-imidazole-4,5-dicarboxamide] | 6.58
COC(=O)c1nc[nH]c1C(=O)Nc1ccc(NC(=O)c2ccc(F)cc2)c(F)c1 [Example 75, methyl-5-({3-fluoro-4-[(4-fluorobenzoyl)amino]phenyl}carbamoyl)-1H-imidazole-4-carboxylate] | 13
CNC(=O)c1nc[nH]c1C(=O)Nc1ccc(NC(=O)c2ccc(F)cc2)c(C)c1 [Example 91, N^5-{4-[(4-fluorobenzoyl)amino]-3-methylphenyl}-N^4-methyl-1H-imidazole-4,5-dicarboxamide] | 44.5
CNC(=O)c1nc[nH]c1C(=O)Nc1ccc(NC(=O)c2ccc(F)cc2)c(OC)c1 [Example 103, N^5-{4-[(4-fluorobenzoyl)amino]-3-methoxyphenyl}-N^4-methyl-1H-imidazole-4,5-dicarboxamide] | 38
COc1cc(NC(=O)c2[nH]cnc2C(=O)NCCN(C)C)ccc1NC(=O)c1ccc(F)cc1 [Example 104, N^4-[2-(dimethylamino)ethyl]-N^5-{4-[(4-fluorobenzoyl)amino]-3-methoxyphenyl}-1H-imidazole-4,5-dicarboxamide] | 7.2
CNC(=O)c1nc[nH]c1C(=O)Nc1ccc(NC(=O)c2ccc(F)cc2)nc1 [Example 115, N^5-{6-[(4-fluorobenzoyl)amino]pyridin-3-yl}-N^4-methyl-1H-imidazole-4,5-dicarboxamide] | 3.55
CN(C)CCNC(=O)c1nc[nH]c1C(=O)Nc1ccc(NC(=O)c2ccc(F)cc2)nc1 [Example 116, N^4-[2-(dimethylamino)ethyl]-N^5-{6-[(4-fluorobenzoyl)amino]pyridin-3-yl}-1H-imidazole-4,5-dicarboxamide] | 44
O=C(Nc1ccc(NC(=O)c2[nH]cnc2C(=O)NCCN2CCCCC2)cn1)c1ccc(F)cc1 [Example 117, N^5-{6-[(4-fluorobenzoyl)amino]pyridin-3-yl}-N^4-[2-(piperidin-1-yl)ethyl]-1H-imidazole-4,5-dicarboxamide] | 40
COCCNC(=O)c1[nH]cnc1C(=O)Nc1ccc(NC(=O)c2ccc(F)cc2)cc1 [Example 140, N^4-{4-[(4-fluorobenzoyl)amino]phenyl}-N^5-(2-methoxyethyl)-1H-imidazole-4,5-dicarboxamide] | 5.7
O=C(Nc1ccc(NC(=O)c2nc[nH]c2C(=O)NCC(F)F)cc1)c1ccc(F)cc1 [Example 141, N^5-(2,2-difluoroethyl)-N^4-{4-[(4-fluorobenzoyl)amino]phenyl}-1H-imidazole-4,5-dicarboxamide] | 3
O=C(Nc1ccc(NC(=O)c2nc[nH]c2C(=O)N2CCC2)cc1)c1ccc(F)cc1 [Example 143, 5-(azetidin-1-ylcarbonyl)-N-{4-[(4-fluorobenzoyl)amino]phenyl}-1H-imidazole-4-carboxamide] | 29.5
CN(C)C(=O)c1[nH]cnc1C(=O)Nc1ccc(NC(=O)c2ccc(F)cc2)cc1 [Example 144, N^4-{4-[(4-fluorobenzoyl)amino]phenyl}-N^5,N^5-dimethyl-1H-imidazole-4,5-dicarboxamide] | 50
CC(C)CNC(=O)c1[nH]cnc1C(=O)Nc1ccc(NC(=O)c2ccc(F)cc2)cc1 [Example 146, N^4-{4-[(4-fluorobenzoyl)amino]phenyl}-N^5-isobutyl-1H-imidazole-4,5-dicarboxamide] | 5.15
O=C(Nc1ccc(NC(=O)c2nc[nH]c2C(=O)NC(CO)CO)cc1)c1ccc(F)cc1 [Example 150, N^5-(1,3-dihydroxypropan-2-yl)-N^4-{4-[(4-fluorobenzoyl)amino]phenyl}-1H-imidazole-4,5-dicarboxamide] | 50
CN1CCN(CCNC(=O)c2[nH]cnc2C(=O)Nc2ccc(NC(=O)c3ccc(F)cc3)cc2)CC1 [Example 161, N^4-{4-[(4-fluorobenzoyl)amino]phenyl}-N^5-[2-(4-methylpiperazin-1-yl)ethyl]-1H-imidazole-4,5-dicarboxamide] | 36.5
CN1CCN(CCCNC(=O)c2[nH]cnc2C(=O)Nc2ccc(NC(=O)c3ccc(F)cc3)cc2)CC1 [Example 181, N^4-{4-[(4-fluorobenzoyl)amino]phenyl}-N^5-[3-(4-methylpiperazin-1-yl)propyl]-1H-imidazole-4,5-dicarboxamide] | 6.7

The next compounds have a lower IC50 than those just listed; values first:

IC50 [µM] | Structure (SMILES)
2.65 | Cc1cc(NC(=O)c2[nH]cnc2C(=O)NCCN2CCCCC2)ccc1NC(=O)c1ccc(F)cc1 [Example 93, N^5-{4-[(4-fluorobenzoyl)amino]-3-methylphenyl}-N^4-[2-(piperidin-1-yl)ethyl]-1H-imidazole-4,5-dicarboxamide]
2.4 | Cc1cc(NC(=O)c2[nH]cnc2C(=O)NCCN(C)C)ccc1NC(=O)c1ccccc1Cl [Example 88, N^5-{4-[(2-chlorobenzoyl)amino]-3-methylphenyl}-N^4-[2-(dimethylamino)ethyl]-1H-imidazole-4,5-dicarboxamide]
2.4 | O=C(Nc1ccc(NC(=O)c2nc[nH]c2C(=O)NCCO)cc1)c1ccc(F)cc1 [Example 136, N^4-{4-[(4-fluorobenzoyl)amino]phenyl}-N^5-(2-hydroxyethyl)-1H-imidazole-4,5-dicarboxamide]
2.25 | O=C(Nc1ccc(NC(=O)c2nc[nH]c2C(=O)NC(CO)CO)cc1)c1ccc(F)cc1Cl [Example 172, N^4-{4-[(2-chloro-4-fluorobenzoyl)amino]phenyl}-N^5-(1,3-dihydroxypropan-2-yl)-1H-imidazole-4,5-dicarboxamide]
1.25 | CC(C)(CN1CCOCC1)NC(=O)c1[nH]cnc1C(=O)Nc1ccc(NC(=O)c2ccccc2Cl)cc1 [Example 154, N^4-{4-[(2-chlorobenzoyl)amino]phenyl}-N^5-[2-methyl-1-(morpholin-4-yl)propan-2-yl]-1H-imidazole-4,5-dicarboxamide]
1.17 | O=C(Nc1ccc(NC(=O)c2nc[nH]c2C(=O)NCCN2CCC(O)CC2)cc1)c1ccc(F)cc1 [Example 178, N^4-{4-[(4-fluorobenzoyl)amino]phenyl}-N^5-[2-(4-hydroxypiperidin-1-yl)ethyl]-1H-imidazole-4,5-dicarboxamide]
1.05 | O=C(Nc1ccc(NC(=O)c2nc[nH]c2C(=O)NCCF)cc1)c1ccc(F)cc1 [Example 174, N^4-{4-[(4-fluorobenzoyl)amino]phenyl}-N^5-(2-fluoroethyl)-1H-imidazole-4,5-dicarboxamide]
0.95 | O=C(Nc1ccc(NC(=O)c2nc[nH]c2C(=O)NCCN2CCOCC2)cc1)c1ccc(F)cc1 [Example 151, N^4-{4-[(4-fluorobenzoyl)amino]phenyl}-N^5-[2-(morpholin-4-yl)ethyl]-1H-imidazole-4,5-dicarboxamide]
0.77 | COC(=O)c1nc[nH]c1C(=O)Nc1ccc(NC(=O)c2ccccc2Cl)nc1 [Example 111, methyl 5-({6-[(2-chlorobenzoyl)amino]pyridin-3-yl}carbamoyl)-1H-imidazole-4-carboxylate]
